Test results as given in PubChem BioAssay AID1996.
Values after ≈ are worked out from the molar mass of the structure shown.

Settings: buffer; pH 7.4; 200.0 µM

Structure (SMILES)	solubility kinetic [µg/mL]
O=C(NCc1nc(-c2ccc(C(F)(F)F)cc2)no1)Nc1ccc(F)cc1F	1.1 (≈ 2.76 µM)
COc1ccc(NC(=S)NCc2cccnc2)cc1OC	> 45.5
O=C1CC(c2ccccc2Cl)CC(O)=C1C=NCCCO (stereo unspecified)	44.3 (≈ 144 µM)
C=CCn1c(-c2ccc(Cl)cc2)cnc1SC(C)C(N)=O (stereo unspecified)	7.1 (≈ 22.1 µM)
O=C(COC(=O)c1c(F)cccc1F)NCc1cccs1	> 46.7
O=C(CSC(=S)N1CCCCC1)Nc1ncc2c(n1)CCCC2=O	11.3 (≈ 31 µM)
O=C(Nc1cccnc1Cl)c1cc2ccccc2o1	7.3 (≈ 26.8 µM)
O=C(NC(=O)c1cnccc1C(F)(F)F)Nc1ccccc1	18.3 (≈ 59.2 µM)
Cn1ncc(Cl)c1C(=O)N1CCC2(CC1)OCCO2	> 42.9
CN(CC(=O)Nc1ccc(C(N)=O)cc1)S(=O)(=O)c1ccc2c(c1)OCCO2	9.4 (≈ 23.2 µM)
CC(C)(CN)CC(=O)O.Cl	23.2
CNC(=S)N(Cc1ccc(Cl)cc1)Cc1cccs1	16 (≈ 51.5 µM)
COc1ccccc1C(=O)OCC(=O)NC1CCCC1	> 41.6
CSc1ccccc1NC(=O)Cc1ccccc1[N+](=O)[O-]	5.7 (≈ 18.9 µM)
Cc1ccccc1CNCc1ccc2c(c1)OCO2.O=C(O)C(=O)O	> 51.8
Cc1nc(S(=O)(=O)Nc2ccccc2C(=O)NCC2CC2)cn1C	> 52.3
COc1ccc(/C=N/NC(=O)c2ccccc2O)cc1CN1CCOCC1	> 55.4
O=S(=O)(Nc1ccccc1N1CCOCC1)c1cccs1	4.2 (≈ 12.9 µM)
CC(=O)Nc1ccc(NCc2cccs2)cc1	> 36.9
COc1cccc(C(=O)Nc2ccc(NC(=O)Cc3ccccc3)cc2)c1	< 0.4
O=C(Nc1cccc([N+](=O)[O-])c1)N1CCCc2ccccc21	34.6 (≈ 116 µM)

Structure (SMILES)	solubility kinetic [µg/mL]
OC1(Cc2ccccc2)CCNCC1	> 28.7
O=C(Nc1sc2c(c1C(=O)O)CCC2)c1ccccc1F	> 45.8
Cc1noc(C)c1C(=O)NC1=NCCS1	> 33.8
O=C(O)CC(Sc1n[nH]c(=S)s1)C(=O)O (stereo unspecified)	> 39.9
COc1cccc(CNC(=S)Nc2ccc(Cl)cc2C)c1	5.5 (≈ 17.1 µM)
CC(=O)Oc1ccc(C(=O)NC(C)CCc2ccccc2)cc1 (stereo unspecified)	42.2 (≈ 136 µM)
O=C(COC(=O)/C=C/c1ccc(Cl)cc1)NC1CCCC1	3.5 (≈ 11.4 µM)
CCOc1cc(CN2CCN(c3ncccn3)CC2)ccc1OC	43.4 (≈ 132 µM)
CCCOc1ccc(CNC(=S)Nc2ccccc2)cc1Cl	1.9 (≈ 5.67 µM)
COc1ccc(OC)c(Nc2ncnc3sccc23)c1	42.2 (≈ 147 µM)
CSc1ncc(C(=O)Nc2ccccc2F)c(-c2ccccc2)n1	1.3 (≈ 3.83 µM)
O=C(CC1NCCNC1=O)NC1Cc2ccccc2C1 (stereo unspecified)	> 41
CC(=O)c1ccccc1NC(=O)CCN1C(=O)C2CCCCC2C1=O (stereo unspecified)	> 51.4
N#Cc1ccc(OCC(=O)Nc2ccc3[nH]c(=O)[nH]c3c2)cc1	7.3 (≈ 23.7 µM)
C#CCOc1ccc(/C=C2/C(=O)ON=C2C)cc1Br	42.7 (≈ 133 µM)
O=C(NCCCO)C(=O)NCc1ccncc1	> 35.6
CC(C)c1ccc(S(=O)(=O)Nc2ccc3c(c2)OCO3)cc1	26.4 (≈ 82.7 µM)
O=C(NCc1cccnc1)c1ccccc1NS(=O)(=O)c1ccc(Br)cc1	> 66.9
Cc1ccc(NC(=O)C2CCC(N3C(=O)C4CCCCC4C3=O)CC2)cc1 (stereo unspecified)	52.2 (≈ 142 µM)
O=C(CSc1ccccn1)NCc1ccc2c(c1)OCO2	> 45.4
CCOc1ccc2[nH]c3c(NCCN(C)C)ncnc3c2c1	> 44.9

Structure (SMILES)	solubility kinetic [µg/mL]
CCOC(=O)Nc1ccc2c(c1)N(C(=O)CN(C)C)c1ccccc1CC2.Cl	57.7
O=C(CSc1ccc(F)cc1)N1CCOCC1	> 38.3
O=C(NC(=S)Nc1ccccc1Cl)C1CC1	> 38.2
CCOC(=O)C1CCCN(C(=O)c2cc(-c3ccco3)nc3ccccc23)C1 (stereo unspecified)	> 56.8
Cl.O=[N+]([O-])c1cc(CN(CCO)CCO)ccc1O	> 43.9
COCCCNC(=O)c1ccc(NC(C)=O)cc1	> 37.5
CCCCc1nc(C(N)=O)c2[nH]c(=O)n(-c3ccc(OCC)cc3)c2n1	5.6 (≈ 15.8 µM)
O=C(Nc1ccncc1)Nc1ccc(F)cc1	29.9 (≈ 129 µM)
O=C(NC1CCSc2ccccc21)c1c(F)cccc1Cl (stereo unspecified)	7.2 (≈ 22.4 µM)
CC[n+]1c(C)n(-c2ccccc2)c2ccc(NC(C)=O)cc21.[I-]	> 63.2
CCCCc1nnc(SCC(=O)NC2CCCCC2)n1C	> 46.6
Cc1ccc2c(c1)/C(=C/c1ccccc1C)C(=O)N2	2.8 (≈ 11.2 µM)
CCCN1CCC(NC(=S)Nc2cccc(Cl)c2Cl)CC1	> 51.9
Cc1cc(Br)c(NC(=O)COC(=O)CC2CC3CCC2C3)c(Br)c1 (stereo unspecified)	7.7 (≈ 16.8 µM)
COc1cc([N+](=O)[O-])cc2sc(NC(=O)C3CC3)nc12	0.6 (≈ 2.05 µM)
O=S(=O)(NCc1ccco1)c1ccc(Cl)cc1Cl	35 (≈ 114 µM)
Cc1cccnc1NC(N)=S	> 25.1
Nc1cc2nc3ccccc3nc2cc1N	5.1 (≈ 24.3 µM)
CCOc1ncccc1C(=O)Nc1ccc2c(c1)OCO2	2.7 (≈ 9.43 µM)
